Measurements from patent US20250230193A1, “CYCLIC COMPOUND HAVING SELECTIVE KRAS INHIBITORY EFFECT ON HRAS AND NRAS” (CHUGAI SEIYAKU KABUSHIKI KAISHA, priority 2022, published 2025).
Each block holds one compound with its values, some of them ahead of it.

Legend:
[1] = target: GDP-bound NRAS wild-type protein (Homo sapiens, UniProt P01111); assay: Binding to NRAS by surface plasmon resonance (SPR), Single Cycle Kinetics; conditions: SPR; KD ratio class
[2] = target: GDP-bound HRAS wild-type protein (Homo sapiens, UniProt P01112); assay: Binding to HRAS by surface plasmon resonance (SPR), Single Cycle Kinetics; conditions: SPR; KD ratio class
[3] = test system: human lung cancer strain NCI-H441; assay: cells; conditions: NCI-H441, 96 h, read-out: NCI-H441 IC50 (nM)

GDP-bound NRAS wild-type protein, sequence (P01111 whole entry): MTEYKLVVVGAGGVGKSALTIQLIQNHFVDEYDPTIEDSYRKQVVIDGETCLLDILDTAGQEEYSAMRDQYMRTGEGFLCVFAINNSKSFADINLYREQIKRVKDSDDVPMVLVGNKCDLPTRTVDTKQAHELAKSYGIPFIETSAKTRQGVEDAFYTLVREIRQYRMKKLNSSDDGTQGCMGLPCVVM
GDP-bound HRAS wild-type protein, sequence (P01112 whole entry): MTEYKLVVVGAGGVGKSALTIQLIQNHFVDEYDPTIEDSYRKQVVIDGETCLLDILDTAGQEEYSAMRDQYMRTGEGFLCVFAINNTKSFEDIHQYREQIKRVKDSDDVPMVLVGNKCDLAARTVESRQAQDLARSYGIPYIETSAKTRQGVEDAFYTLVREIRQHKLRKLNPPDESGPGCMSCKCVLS

SMILES: CCO[C@@H]1C[C@H]2C(=O)NC3(CCC3)C(=O)N(C)[C@@H](C3CCCC3)C(=O)N(C)[C@H](C(=O)N(C)C)CC(=O)N(C)[C@@H](CC(C)C)C(=O)N[C@@H]([C@@H](C)CC)C(=O)N(C)CC(=O)N(C)[C@H]3C/C=C\CCN(C3=O)[C@@H](Cc3ccc(C(F)(F)F)cc3)C(=O)N(C)CC(=O)N[C@@H](CCc3ccc(Cl)c(Cl)c3)C(=O)N2C1 [PP1251]
- NRAS/KRAS (ratio of KD value for GDP-bound NRAS wild-type protein to KD value for KRAS) [1]: AA (a compound having 20 or more is denoted as AA)
- HRAS/KRAS (ratio of KD value for GDP-bound HRAS wild-type protein to KD value for KRAS) [2]: A (a compound having 10 or more and less than 20 is denoted as A)
- IC50 [3]: 10.2 nM

SMILES: CCCCCC[C@H]1C(=O)N[C@@H]([C@@H](C)CC)C(=O)N(C)CC(=O)N(C)[C@H]2C/C=C\CCN(C2=O)[C@@H](Cc2ccc(C(F)(F)F)cc2)C(=O)N(C)CC(=O)N[C@@H](CCc2ccc(Cl)c(Cl)c2)C(=O)N2C[C@H](OCC)C[C@H]2C(=O)NC2(CCC2)C(=O)N(C)[C@@H](C2CCCC2)C(=O)N(C)[C@H](C(=O)N(C)C)CC(=O)N1C [PP1252]
- NRAS/KRAS (ratio of KD value for GDP-bound NRAS wild-type protein to KD value for KRAS) [1]: AA (a compound having 20 or more is denoted as AA)
- HRAS/KRAS (ratio of KD value for GDP-bound HRAS wild-type protein to KD value for KRAS) [2]: A (a compound having 10 or more and less than 20 is denoted as A)
- IC50 [3]: 51.2 nM

SMILES: CCO[C@@H]1C[C@H]2C(=O)NC3(CCC3)C(=O)N(C)[C@@H](C3CCCC3)C(=O)N(C)[C@H](C(=O)N(C)C)CC(=O)N(C)[C@@H](CC3CCCC3)C(=O)N[C@@H]([C@@H](C)CC)C(=O)N(C)CC(=O)N(C)[C@H]3C/C=C\CCN(C3=O)[C@@H](Cc3ccc(C(F)(F)F)cc3)C(=O)N(C)CC(=O)N[C@@H](CCc3ccc(Cl)c(Cl)c3)C(=O)N2C1 [PP1254]
- NRAS/KRAS (ratio of KD value for GDP-bound NRAS wild-type protein to KD value for KRAS) [1]: AA (a compound having 20 or more is denoted as AA)
- HRAS/KRAS (ratio of KD value for GDP-bound HRAS wild-type protein to KD value for KRAS) [2]: A (a compound having 10 or more and less than 20 is denoted as A)
- IC50 [3]: 28.3 nM

SMILES: CCC[C@H]1C(=O)N[C@@H]([C@@H](C)CC)C(=O)N(C)CC(=O)N(C)[C@H]2C/C=C\CCN(C2=O)[C@@H](Cc2ccc(C(F)(F)F)cc2)C(=O)N(C)CC(=O)N[C@@H](CCc2ccc3sccc3c2)C(=O)N2C[C@H](OCC)C[C@H]2C(=O)NC2(CCC2)C(=O)N(C)[C@@H](C2CCCC2)C(=O)N(C)[C@H](C(=O)N(C)C)CC(=O)N1C [PP1256]
- NRAS/KRAS (ratio of KD value for GDP-bound NRAS wild-type protein to KD value for KRAS) [1]: A (a compound having 10 or more and less than 20 is denoted as A)
- HRAS/KRAS (ratio of KD value for GDP-bound HRAS wild-type protein to KD value for KRAS) [2]: A (a compound having 10 or more and less than 20 is denoted as A)
- IC50 [3]: 69 nM

SMILES: CCO[C@@H]1C[C@H]2C(=O)NC3(CCC3)C(=O)N(C)[C@@H](C3CCCC3)C(=O)N(C)[C@H](C(=O)N(C)C)CC(=O)N(C)[C@@H](CC3CC3)C(=O)N[C@@H]([C@@H](C)CC)C(=O)N(C)CC(=O)N(C)[C@H]3C/C=C\CCN(C3=O)[C@@H](Cc3ccc(C(F)(F)F)cc3)C(=O)N(C)CC(=O)N[C@@H](CCc3ccc4sccc4c3)C(=O)N2C1 [PP1260]
- NRAS/KRAS (ratio of KD value for GDP-bound NRAS wild-type protein to KD value for KRAS) [1]: A (a compound having 10 or more and less than 20 is denoted as A)
- HRAS/KRAS (ratio of KD value for GDP-bound HRAS wild-type protein to KD value for KRAS) [2]: A (a compound having 10 or more and less than 20 is denoted as A)
- IC50 [3]: 60.4 nM

SMILES: CCO[C@@H]1C[C@H]2C(=O)NC3(CCC3)C(=O)N(C)[C@@H](C3CCCC3)C(=O)N(C)[C@H](C(=O)N(C)C)CC(=O)N(C)[C@@H](CC)C(=O)N[C@@H]([C@@H](C)CC)C(=O)N(C)CC(=O)N(C)[C@H]3C/C=C\CCN(C3=O)[C@@H](Cc3ccc(C(F)(F)F)cc3)C(=O)N(C)CC(=O)N[C@@H](CCc3cc(F)c(Cl)c(F)c3)C(=O)N2C1 [PP1262]
- NRAS/KRAS (ratio of KD value for GDP-bound NRAS wild-type protein to KD value for KRAS) [1]: A (a compound having 10 or more and less than 20 is denoted as A)
- HRAS/KRAS (ratio of KD value for GDP-bound HRAS wild-type protein to KD value for KRAS) [2]: B (a compound having 3 or more and less than 10 is denoted as B)
- IC50 [3]: 56.7 nM

Further compounds by falling IC50 [3], results first:

- IC50 [3]: 156 nM
SMILES: CCO[C@@H]1C[C@H]2C(=O)NC3(CCC3)C(=O)N(C)[C@@H](C3CCCC3)C(=O)N(C)[C@H](C(=O)N(C)C)CC(=O)N(C)[C@@H](CC)C(=O)N[C@@H]([C@@H](C)CC)C(=O)N(C)CC(=O)N(C)[C@H]3C/C=C\CCN(C3=O)[C@@H](Cc3ccc(C(F)(F)F)cc3)C(=O)N(C)CC(=O)N[C@@H](CCc3ccc4sccc4c3)C(=O)N2C1 [PP1255]
- NRAS/KRAS (ratio of KD value for GDP-bound NRAS wild-type protein to KD value for KRAS) [1]: A (a compound having 10 or more and less than 20 is denoted as A)
- HRAS/KRAS (ratio of KD value for GDP-bound HRAS wild-type protein to KD value for KRAS) [2]: A (a compound having 10 or more and less than 20 is denoted as A)

- IC50 [3]: 62 nM
SMILES: CCCCCC[C@H]1C(=O)N[C@@H]([C@@H](C)CC)C(=O)N(C)CC(=O)N(C)[C@H]2C/C=C\CCN(C2=O)[C@@H](Cc2ccc(C(F)(F)F)cc2)C(=O)N(C)CC(=O)N[C@@H](CCc2ccc3sccc3c2)C(=O)N2C[C@H](OCC)C[C@H]2C(=O)NC2(CCC2)C(=O)N(C)[C@@H](C2CCCC2)C(=O)N(C)[C@H](C(=O)N(C)C)CC(=O)N1C [PP1259]
- NRAS/KRAS (ratio of KD value for GDP-bound NRAS wild-type protein to KD value for KRAS) [1]: A (a compound having 10 or more and less than 20 is denoted as A)
- HRAS/KRAS (ratio of KD value for GDP-bound HRAS wild-type protein to KD value for KRAS) [2]: A (a compound having 10 or more and less than 20 is denoted as A)

- IC50 [3]: 54.3 nM
SMILES: CCO[C@@H]1C[C@H]2C(=O)NC3(CCC3)C(=O)N(C)[C@@H](C3CCCC3)C(=O)N(C)[C@H](C(=O)N(C)C)CC(=O)N(C)[C@@H](CC(C)C)C(=O)N[C@@H]([C@@H](C)CC)C(=O)N(C)CC(=O)N(C)[C@H]3C/C=C\CCN(C3=O)[C@@H](Cc3ccc(C(F)(F)F)cc3)C(=O)N(C)CC(=O)N[C@@H](CCc3ccc4sccc4c3)C(=O)N2C1 [PP1257]
- NRAS/KRAS (ratio of KD value for GDP-bound NRAS wild-type protein to KD value for KRAS) [1]: A (a compound having 10 or more and less than 20 is denoted as A)
- HRAS/KRAS (ratio of KD value for GDP-bound HRAS wild-type protein to KD value for KRAS) [2]: A (a compound having 10 or more and less than 20 is denoted as A)

- IC50 [3]: 18.9 nM
SMILES: CCO[C@@H]1C[C@H]2C(=O)NC3(CCC3)C(=O)N(C)[C@@H](C3CCCC3)C(=O)N(C)[C@H](C(=O)N(C)C)CC(=O)N(C)[C@@H](CC(C)C)C(=O)N[C@@H]([C@@H](C)CC)C(=O)N(C)CC(=O)N(C)[C@H]3C/C=C\CCN(C3=O)[C@@H](Cc3ccc(C(F)(F)F)cc3)C(=O)N(C)CC(=O)N[C@@H](CCc3cc(F)c(Cl)c(F)c3)C(=O)N2C1 [PP1263]
- NRAS/KRAS (ratio of KD value for GDP-bound NRAS wild-type protein to KD value for KRAS) [1]: A (a compound having 10 or more and less than 20 is denoted as A)
- HRAS/KRAS (ratio of KD value for GDP-bound HRAS wild-type protein to KD value for KRAS) [2]: A (a compound having 10 or more and less than 20 is denoted as A)

- IC50 [3]: 15.9 nM
SMILES: CCO[C@@H]1C[C@H]2C(=O)NC3(CCC3)C(=O)N(C)[C@@H](C3CCCC3)C(=O)N(C)[C@H](C(=O)N(C)C)CC(=O)N(C)[C@@H](CC3CCCC3)C(=O)N[C@@H]([C@@H](C)CC)C(=O)N(C)CC(=O)N(C)[C@H]3C/C=C\CCN(C3=O)[C@@H](Cc3ccc(C(F)(F)F)cc3)C(=O)N(C)CC(=O)N[C@@H](CCc3cc(F)c(Cl)c(F)c3)C(=O)N2C1 [PP1264]
- NRAS/KRAS (ratio of KD value for GDP-bound NRAS wild-type protein to KD value for KRAS) [1]: A (a compound having 10 or more and less than 20 is denoted as A)
- HRAS/KRAS (ratio of KD value for GDP-bound HRAS wild-type protein to KD value for KRAS) [2]: B (a compound having 3 or more and less than 10 is denoted as B)
